Experimental data reported in ChEMBL document CHEMBL2439971, “Design, synthesis and antiproliferative evaluation of fluorenone analogs with DNA topoisomerase I inhibitory properties” (Bioorg Med Chem, 2013).
The source made the active and inactive calls. The calls are words filed in the database; no cut-off is given here.

How the values were obtained:
Homo sapiens = species on record: Homo sapiens; experiment: Inhibition of telomerase (unknown origin) at 10 uM TRAP assay
CAKI-1 = experiment: Cytotoxicity against human CAKI-1 cells at 10 uM after 48 hrs by sulforhodamine B assay relative to control; format: functional
MDA-MB-468 = experiment: Cytotoxicity against human MDA-MB-468 cells at 10 uM after 48 hrs by sulforhodamine B assay relative to control; format: functional
T47D = experiment: Cytotoxicity against human T47D cells at 10 uM after 48 hrs by sulforhodamine B assay relative to control; format: functional
BT-549 = experiment: Cytotoxicity against human BT549 cells at 10 uM after 48 hrs by sulforhodamine B assay relative to control; format: functional
[1] = Cytotoxicity against human Hs 578T cells at 10 uM after 48 hrs by sulforhodamine B assay relative to control; format: functional
MDA-MB-231 = experiment: Cytotoxicity against human MDA-MB-231 cells at 10 uM after 48 hrs by sulforhodamine B assay relative to control; format: functional
MCF7 = experiment: Cytotoxicity against human MCF7 cells at 10 uM after 48 hrs by sulforhodamine B assay relative to control; format: functional
DU-145 = experiment: Cytotoxicity against human DU145 cells at 10 uM after 48 hrs by sulforhodamine B assay relative to control; format: functional
PC-3 [2] = experiment: Cytotoxicity against human PC3 cells at 10 uM after 48 hrs by sulforhodamine B assay relative to control; format: functional
UO-31 = experiment: Cytotoxicity against human UO31 cells at 10 uM after 48 hrs by sulforhodamine B assay relative to control; format: functional
TK-10 = experiment: Cytotoxicity against human TK10 cells at 10 uM after 48 hrs by sulforhodamine B assay relative to control; format: functional
SN12C = experiment: Cytotoxicity against human SN12C cells at 10 uM after 48 hrs by sulforhodamine B assay relative to control; format: functional
RXF 393 = experiment: Cytotoxicity against human RXF393 cells at 10 uM after 48 hrs by sulforhodamine B assay relative to control; format: functional
ACHN = experiment: Cytotoxicity against human ACHN cells at 10 uM after 48 hrs by sulforhodamine B assay relative to control; format: functional
786-0 = experiment: Cytotoxicity against human 786-0 cells at 10 uM after 48 hrs by sulforhodamine B assay relative to control; format: functional
NCI/ADR-RES = experiment: Cytotoxicity against human NCI/ADR-RES cells at 10 uM after 48 hrs by sulforhodamine B assay relative to control; format: functional
OVCAR-8 = experiment: Cytotoxicity against human OVCAR8 cells at 10 uM after 48 hrs by sulforhodamine B assay relative to control; format: functional
OVCAR-5 = experiment: Cytotoxicity against human OVCAR5 cells at 10 uM after 48 hrs by sulforhodamine B assay relative to control; format: functional
OVCAR-4 = experiment: Cytotoxicity against human OVCAR4 cells at 10 uM after 48 hrs by sulforhodamine B assay relative to control; format: functional
OVCAR-3 = experiment: Cytotoxicity against human OVCAR3 cells at 10 uM after 48 hrs by sulforhodamine B assay relative to control; format: functional
IGROV-1 = experiment: Cytotoxicity against human IGROV1 cells at 10 uM after 48 hrs by sulforhodamine B assay relative to control; format: functional
UACC-62 = experiment: Cytotoxicity against human UACC62 cells at 10 uM after 48 hrs by sulforhodamine B assay relative to control; format: functional
UACC-257 = experiment: Cytotoxicity against human UACC257 cells at 10 uM after 48 hrs by sulforhodamine B assay relative to control; format: functional
SK-MEL-5 = experiment: Cytotoxicity against human SK-MEL-5 cells at 10 uM after 48 hrs by sulforhodamine B assay relative to control; format: functional
SK-MEL-28 = experiment: Cytotoxicity against human SK-MEL-28 cells at 10 uM after 48 hrs by sulforhodamine B assay relative to control; format: functional
SK-MEL-2 = experiment: Cytotoxicity against human SK-MEL-2 cells at 10 uM after 48 hrs by sulforhodamine B assay relative to control; format: functional
MDA-MB-435 = experiment: Cytotoxicity against human MDA-MB-435 cells at 10 uM after 48 hrs by sulforhodamine B assay relative to control; format: functional
M14 = experiment: Cytotoxicity against human M14 cells at 10 uM after 48 hrs by sulforhodamine B assay relative to control; format: functional
Malme-3M = experiment: Cytotoxicity against human MALME-3M cells at 10 uM after 48 hrs by sulforhodamine B assay relative to control; format: functional
LOX IMVI = experiment: Cytotoxicity against human LOXIMVI cells at 10 uM after 48 hrs by sulforhodamine B assay relative to control; format: functional
SNB-75 = experiment: Cytotoxicity against human SNB75 cells at 10 uM after 48 hrs by sulforhodamine B assay relative to control; format: functional
U-251 = experiment: Cytotoxicity against human U251 cells at 10 uM after 48 hrs by sulforhodamine B assay relative to control; format: functional
SF-539 = experiment: Cytotoxicity against human SF539 cells at 10 uM after 48 hrs by sulforhodamine B assay relative to control; format: functional
SNB-19 = experiment: Cytotoxicity against human SNB19 cells at 10 uM after 48 hrs by sulforhodamine B assay relative to control; format: functional
SF-295 = experiment: Cytotoxicity against human SF295 cells at 10 uM after 48 hrs by sulforhodamine B assay relative to control; format: functional
SF-268 = experiment: Cytotoxicity against human SF268 cells at 10 uM after 48 hrs by sulforhodamine B assay relative to control; format: functional
SW-620 = experiment: Cytotoxicity against human SW620 cells at 10 uM after 48 hrs by sulforhodamine B assay relative to control; format: functional
KM12 = experiment: Cytotoxicity against human KM12 cells at 10 uM after 48 hrs by sulforhodamine B assay relative to control; format: functional
HT-29 = experiment: Cytotoxicity against human HT-29 cells at 10 uM after 48 hrs by sulforhodamine B assay relative to control; format: functional
HCT-15 = experiment: Cytotoxicity against human HCT15 cells at 10 uM after 48 hrs by sulforhodamine B assay relative to control; format: functional
HCT-116 = experiment: Cytotoxicity against human HCT116 cells at 10 uM after 48 hrs by sulforhodamine B assay relative to control; format: functional
HCC 2998 = experiment: Cytotoxicity against human HCC2998 cells at 10 uM after 48 hrs by sulforhodamine B assay relative to control; format: functional
COLO 205 = experiment: Cytotoxicity against human COLO205 cells at 10 uM after 48 hrs by sulforhodamine B assay relative to control; format: functional
NCI-H522 = experiment: Cytotoxicity against human NCI-H522 cells at 10 uM after 48 hrs by sulforhodamine B assay relative to control; format: functional
NCI-H460 = experiment: Cytotoxicity against human NCI-H460 cells at 10 uM after 48 hrs by sulforhodamine B assay relative to control; format: functional
NCI-H322M = experiment: Cytotoxicity against human NCI-H322M cells at 10 uM after 48 hrs by sulforhodamine B assay relative to control; format: functional
NCI-H23 = experiment: Cytotoxicity against human NCI-H23 cells at 10 uM after 48 hrs by sulforhodamine B assay relative to control; format: functional
NCI-H226 = experiment: Cytotoxicity against human NCI-H226 cells at 10 uM after 48 hrs by sulforhodamine B assay relative to control; format: functional
HOP-62 = experiment: Cytotoxicity against human HOP62 cells at 10 uM after 48 hrs by sulforhodamine B assay relative to control; format: functional
[3] = Cytotoxicity against human EKVX cells at 10 uM after 48 hrs by sulforhodamine B assay relative to control; format: functional
A549 = experiment: Cytotoxicity against human A549 cells at 10 uM after 48 hrs by sulforhodamine B assay relative to control; format: functional
SR = experiment: Cytotoxicity against human SR cells at 10 uM after 48 hrs by sulforhodamine B assay relative to control; format: functional
RPMI-8226 = experiment: Cytotoxicity against human RPMI8226 cells at 10 uM after 48 hrs by sulforhodamine B assay relative to control; format: functional
MOLT-4 = experiment: Cytotoxicity against human MOLT4 cells at 10 uM after 48 hrs by sulforhodamine B assay relative to control; format: functional
K562 = experiment: Cytotoxicity against human K562 cells at 10 uM after 48 hrs by sulforhodamine B assay relative to control; format: functional
HL-60(TB) = experiment: Cytotoxicity against human HL-60(TB) cells at 10 uM after 48 hrs by sulforhodamine B assay relative to control; format: functional
CCRF-CEM = experiment: Cytotoxicity against human CCRF-CEM cells at 10 uM after 48 hrs by sulforhodamine B assay relative to control; format: functional
PC-3 [4] = experiment: Cytotoxicity against human PC3 cells after 48 hrs by sulforhodamine B assay; format: functional, cell-based; conditions: PC-3, 48 h

CCNCC(=O)Nc1ccc2c(c1)C(=O)c1cc(NC(=O)CNCC)ccc1-2
inhibition (Homo sapiens): inactive
Activity (CAKI-1): 94.69%
Activity (MDA-MB-468): 63.55%
Activity (T47D): 88.81%
Activity (BT-549): 123.2%
Activity [1]: 91.4%
Activity (MDA-MB-231): 77.38%
Activity (MCF7): 40.53%
Activity (DU-145): 69.67%
Activity (PC-3 [2]): 67.64%
Activity (UO-31): 89.54%
Activity (TK-10): 88.37%
Activity (SN12C): 77.91%
Activity (RXF 393): 91.9%
Activity (ACHN): 69.43%
Activity (786-0): 101.23%
Activity (NCI/ADR-RES): 93.46%
Activity (OVCAR-8): 61.15%
Activity (OVCAR-5): 116.02%
Activity (OVCAR-4): 69.72%
Activity (OVCAR-3): 90.91%
Activity (IGROV-1): 97.57%
Activity (UACC-62): 110.09%
Activity (UACC-257): 97.32%
Activity (SK-MEL-5): 93.43%
Activity (SK-MEL-28): 82.07%
Activity (SK-MEL-2): 106.9%
Activity (MDA-MB-435): 65.72%
Activity (M14): 90.37%
Activity (Malme-3M): 113.96%
Activity (LOX IMVI): 72.19%
Activity (SNB-75): 92.67%
Activity (U-251): 55.71%
Activity (SF-539): 102.19%
Activity (SNB-19): 95.76%
Activity (SF-295): 91.26%
Activity (SF-268): 78.21%
Activity (SW-620): 51.79%
Activity (KM12): 77.37%
Activity (HT-29): 48.89%
Activity (HCT-15): 95.25%
Activity (HCT-116): 64.57%
Activity (HCC 2998): 85.37%
Activity (COLO 205): 64.33%
Activity (NCI-H522): 82.16%
Activity (NCI-H460): 70.36%
Activity (NCI-H322M): 67.74%
Activity (NCI-H23): 78.18%
Activity (NCI-H226): 99.42%
Activity (HOP-62): 71.54%
Activity [3]: 90.83%
Activity (A549): 62.52%
Activity (SR): 81.75%
Activity (RPMI-8226): 91.09%
Activity (MOLT-4): 61.34%
Activity (K562): 53.9%
Activity (HL-60(TB)): 95.53%
Activity (CCRF-CEM): 66.36%
IC50 (PC-3 [4]): 4.38 µM
